Assay results reported in PubChem BioAssay (NCI).
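Tested at 5 concentrations; 48 h exposure; 96-well plates; endpoints linearly interpolated, else capped at highest concentration. Here, GI50 denotes the concentration required for 50% inhibition of growth. TGI: concentration producing complete growth inhibition.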

Assays:
Test in all cases: growth of human tumour cells (NCI), 48 h
[1] = system: EKVX NSCLC
[2] = system: HCT-116 colon
[3] = system: HOP-62 NSCLC
[4] = system: HT29 colon
[5] = system: IGROV1 ovarian
[6] = system: NCI-H226 lung
[7] = system: NCI-H460 lung
[8] = system: SNB-19 CNS
[9] = system: SNB-75 CNS
[10] = system: UACC-257 melanoma

| SMILES | TGI [1] [µM] | TGI [2] [µM] | TGI [3] [µM] | TGI [4] [µM] | TGI [5] [µM] | TGI [6] [µM] | TGI [7] [µM] | TGI [8] [µM] | TGI [9] [µM] | TGI [10] [µM] | GI50 [1] [µM] | GI50 [2] [µM] | GI50 [3] [µM] | GI50 [4] [µM] | GI50 [5] [µM] | GI50 [6] [µM] | GI50 [7] [µM] | GI50 [9] [µM] | GI50 [10] [µM] |
| --- | --- | --- | --- | --- | --- | --- | --- | --- | --- | --- | --- | --- | --- | --- | --- | --- | --- | --- | --- |
| Cc1ncc(CO)c(C=NCCCCCCN=Cc2c(CO)cnc(C)c2O)c1O | > 100 | > 100 | > 100 | > 100 | > 100 | > 100 | > 100 | > 100 | > 100 | > 100 | – | – | – | – | – | – | – | – | – |
| Cc1ccc(S(=O)(=O)Nc2cc(Sc3ccccc3)c(O)c3ccccc23)cc1 | 25.3 | 11.5 | 25.5 | 53.1 | 10.4 | 39.3 | 34.5 | – | 25.5 | 3.67 | 12.3 | 3.13 | 7.99 | 20.6 | 3.5 | 14.7 | 17.6 | 12.9 | 1.86 |
| COc1cc(Cc2ccc3c(c2C#N)N(C)c2ccccc2S3)cc(OC)c1OC | > 100 | > 100 | > 100 | > 100 | > 100 | > 100 | > 100 | > 100 | – | > 100 | – | – | – | – | – | – | – | – | – |
| Cc1nc(N(CCO)CCO)c2sc(=S)n(-c3ccccc3)c2n1 | – | > 100 | > 100 | > 100 | > 100 | > 100 | > 100 | > 100 | > 100 | > 100 | – | – | – | – | – | – | – | – | – |
| COc1cc(C2S/C(=C/c3ccccc3)C(=O)N2c2ccccc2Cl)cc(OC)c1OC (stereo not given) | 50.8 | 62.6 | > 100 | 47.5 | – | > 100 | – | > 100 | 29.6 | > 100 | – | – | – | – | – | – | – | – | – |
| CN(CCO)/N=N/c1nc[nH]c1C(N)=O | > 100 | > 100 | > 100 | > 100 | > 100 | > 100 | > 100 | > 100 | > 100 | > 100 | – | – | – | – | – | – | – | – | – |
| C/C(=N\NC(=S)Nc1ccc(Cl)cc1)c1nc2ncccc2[nH]1 | 13.1 | 13 | 18.1 | 14.7 | 21.5 | 8.25 | 4.14 | > 100 | 25.4 | 7.75 | – | – | – | – | – | – | – | – | – |
| O=c1oc2c(ccc3c(O)cccc32)c2c1CCCC2 | > 100 | > 100 | 48.4 | > 100 | > 100 | > 100 | > 100 | > 100 | 19.9 | > 100 | – | – | – | – | – | – | – | – | – |
| BrC1=CN2C[n+]3cc(Br)c4ccccc4c3N=C2c2ccccc21 | – | – | 16.6 | 38.6 | 32.1 | – | 32.9 | 32.4 | 10.9 | 48.8 | – | – | – | – | – | – | – | – | – |
| CCOC(=O)/C(=N/Nc1ccc(Cl)cc1)N1C(=S)C=C(C)NN(C)C1=S | 73 | > 100 | – | > 100 | > 100 | – | > 100 | > 100 | 69.3 | > 100 | – | – | – | – | – | – | – | – | – |
| COc1cc2nc(N3CCC[C@@H](NC4=CC(=O)c5ccccc5C4=O)C3)nc(N)c2cc1OC | – | – | 4.26 | 3.82 | – | 52.7 | 4.36 | – | 3.25 | 38 | – | – | 2.16 | 1.88 | – | 21.9 | 2.1 | 1.64 | 16.6 |
| NC(=S)N/N=C/c1ccc(OC(=O)COc2ccccc2Cl)cn1 | 97.8 | > 90 | 67.4 | > 100 | > 100 | 73.9 | > 100 | > 100 | > 100 | > 92.4 | – | – | – | – | – | – | – | – | – |
| CCOC(=O)C(=O)Nc1cccc(C)c1C | > 100 | > 100 | > 100 | > 100 | > 100 | > 100 | > 100 | > 100 | > 100 | > 100 | – | – | – | – | – | – | – | – | – |
| C/C([O-])=C(/c1nc(-c2ccc([N+](=O)[O-])o2)no1)[n+]1cc(C)ccc1C | > 100 | 18.5 | 37.3 | 22.7 | > 81.6 | 31.6 | 17.5 | 41.5 | > 49.9 | 24.2 | – | – | – | – | – | – | – | – | – |
| COC(=O)C1=C(O)C(C(=O)OC)[C@@]2(O)[C@@H](C(=O)OC)CC[C@@H]1[C@@H]2C(=O)OC (stereo not given in full) | 85.7 | > 100 | 75.6 | > 100 | – | 70.9 | 35.9 | > 100 | 64.8 | > 100 | – | – | – | – | – | – | – | – | – |
| O=C(O)CN=c1c2ccccc2n(O)c2ccccc12 | > 100 | > 100 | > 100 | > 100 | > 100 | > 100 | > 100 | > 100 | > 100 | > 100 | – | – | – | – | – | – | – | – | – |
